Data published in BindingDB's records for doi:10.1016/s0960-894x(01)00397-3 (Glaxosmithkline, 2001).

Biological target: C-C chemokine receptor type 2 (Homo sapiens, UniProt P41597)
Assay: Inhibition of [125I]MCP-1 binding to the cloned C-C chemokine receptor type 2B expressed in CHO cells

Sequence of C-C chemokine receptor type 2 (P41597 whole entry): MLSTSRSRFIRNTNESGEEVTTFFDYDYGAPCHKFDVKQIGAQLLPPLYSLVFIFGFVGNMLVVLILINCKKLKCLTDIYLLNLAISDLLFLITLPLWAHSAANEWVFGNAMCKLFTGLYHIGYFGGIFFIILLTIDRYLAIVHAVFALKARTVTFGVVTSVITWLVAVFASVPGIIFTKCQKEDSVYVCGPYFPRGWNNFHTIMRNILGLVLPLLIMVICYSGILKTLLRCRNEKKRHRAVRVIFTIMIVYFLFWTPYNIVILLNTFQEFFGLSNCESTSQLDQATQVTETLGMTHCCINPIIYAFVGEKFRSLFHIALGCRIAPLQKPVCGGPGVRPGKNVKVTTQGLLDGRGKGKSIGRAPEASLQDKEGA

## O=C(/C=C/c1ccc(Cl)c(Cl)c1)N[C@H]1CC[C@H](CN2CCC(c3c[nH]c4ccc(O)cc34)CC2)CC1 [3-(3,4-dichlorophenyl)-N-((1r,4r)-4-((4-(5-hydroxy-1H-indol-3-yl)piperidin-1-yl)methyl)cyclohexyl)acrylamide]
  Ki: 316 nM
